Source: publication PMC5075098, “Preclinical Evaluation of the Stability, Safety, and Efficacy of CD101, a Novel Echinocandin” (Antimicrobial Agents and Chemotherapy, 2016)
Where two headings read alike, the source gives them in different places. Starred links: 1 amine or outer side, 2 acyl side, 3 side chain; linkers in the order of their positions; H or OH if unused. Positions of bridges follow the written chain, without caps; N, C: chain ends. Non-standard residues stand in square brackets, D forms with d. Residues, ends and D or L forms follow the SMILES beside them. *: point of attachment. Orn(4R-OH,5R-OCH2CH2NMe3+) = C[N+](C)(C)CCO[C@@H](N[*:3])[C@H](O)C[C@H](N[*:1])C(=O)[*:2]; pTerphenylCO(4''-OnC5H11) = CCCCCOc1ccc(-c2ccc(-c3ccc(C(=O)*)cc3)cc2)cc1; hTyr(3S-OH,4S-OH) = N[C@H](C(=O)O)[C@H](O)[C@@H](O)c1ccc(O)cc1; Pro(3S-OH,4S-Me) = C[C@H]1CN[C@H](C(=O)O)[C@H]1O; Hyp = O=C(O)[C@@H]1C[C@@H](O)CN1

Assays:
[1] = after 44 h; cited from earlier work
Source text: CD101, a novel echinocandin being developed as a high-exposure, once-weekly intravenous (i.v.) formulation for the treatment and prevention of systemic fungal infections, was designed to be chemically and metabolically stable to avoid hepatotoxicity while retaining the antifungal activity of an echinocandin.

[2] = Plasma protein binding, rapid equilibrium dialysis; format: in vitro ADME; conditions: human, pH 7.4, read-out: protein bound (converted)
Description: (§1) Rapid equilibrium dialysis (RED) ([16]) was used to determine cross-species protein binding of CD101 in CD-1 mouse, Sprague-Dawley rat, cynomolgus monkey, chimpanzee, and human plasma. […] Dialysis buffer (350 μl of phosphate-buffered saline [PBS], pH 7.4, with 100 mM sodium phosphate) was loaded into the buffer (left) channel of the RED device. The device was agitated gently at 37°C for 4 h. Samples were placed into a new 96-well plate for matrix matching (25 μl of plasma added to the dialysis buffer aliquots or 25 μl of dialysis buffer to the plasma aliquots). […] Following centrifugation, 200 μl of the supernatant was transferred to a clean 96-well plate and evaporated to dryness at 37°C under nitrogen. Samples were reconstituted in 100 μl of 1:1 acetonitrile-water prior to analysis by LC-MS/MS. The percentage bound was calculated as the difference between 100% and the percentage free (the ratio of the concentration in supernatant to the concentration in plasma).

[3] = Plasma protein binding, rapid equilibrium dialysis; format: in vitro ADME, cynomolgus monkey; conditions: monkey, pH 7.4, read-out: protein bound (converted)
Description: as §1

[4] = tested on: A. fumigatus (ATCC 13073); experiment: MEC/MIC, CLSI broth microdilution; conditions: 24 h at 35°C, rounded/compact hyphal morphology
Description: Enumeration of MIC and MEC assay inoculum viable counts was performed by plating aliquots of the starting assay inoculum on Sabouraud dextrose agar.

[5] = Plasma protein binding, rapid equilibrium dialysis; format: in vitro ADME, Sprague-Dawley rat; conditions: rat, pH 7.4, read-out: protein bound (converted)
Description: as §1

[6] = 2-week repeat-dose toxicity and hepatotoxicity screening; format: in vivo, Sprague-Dawley rats
Description: Dosing solutions were prepared in a vehicle comprising 5% mannitol containing 2.5% polysorbate 80 (Tween 80) in 0.3% acetic acid.
Animals were randomly assigned to dose groups and stratified by weight to achieve similar group mean body weights (males, 255 to 318 g; females, 192 to 215 g). Blood, urine, and liver samples (excised and preserved in 10% neutral buffered formalin) were obtained on day 15. Plasma liver enzyme levels were assessed. Liver tissues were processed to paraffin blocks and prepared for slides. Slides were stained with hematoxylin and eosin. Hematology data were collected using the Advia 120 hematology analyzer. Coagulation data were collected using the Diagnostica STA compact coagulation analyzer. Clinical chemistry data were collected using the AU400 chemistry analyzer. Qualitative and quantitative urinalysis was recorded using iRICELL 1500 UA analyzer. Clinical effects were assessed for determination of the maximum tolerated dose (MTD).
Statistical evaluations were performed on in-life and clinical pathology numerical data to determine statistical significance following a decision tree. First, the homogeneity of the data was determined by Bartlett's test. If the data were homogeneous, a one-way analysis of variance was performed to assess statistical significance. If statistically significant differences between the means were found, Dunnett's test was used to determine the degree of significance from the control means (P < 0.05, P < 0.01, and P < 0.001). If the data were nonhomogeneous, the Kruskal-Wallis nonparametric analysis was performed to assess statistical significance. If statistically significant differences between the means were found (P < 0.05, P < 0.01, and P < 0.001), the Mann-Whitney U test was used to determine the degree of significance from the control means (P < 0.05, P < 0.01, and P < 0.001).

[7] = tested on: A. fumigatus (ATCC 13073); experiment: Neutropenic mouse model of A. fumigatus infection, survival; conditions: for survival: 10-day observation, n = 10/group
Description: Animals were immunosuppressed by three i.p. injections of cyclophosphamide (the first injection at 6 mg/mouse 3 days before inoculation and the second and third injections at 2 mg/mouse on 1 and 4 days after inoculation). […] Dose administration started 1 and 7 h after infection. […] An increase of 50% or more in the survival rate of the active groups compared to the vehicle group indicated significant antifungal efficacy.

[8] = Plasma protein binding, rapid equilibrium dialysis; format: in vitro ADME, CD-1 mouse; conditions: mouse, pH 7.4, read-out: protein bound (converted)
Description: as §1

[9] = Reactive metabolite screening (glutathione trapping); format: in vitro ADME
Description: Samples were diluted to 10 μg/ml into 50:50 acetonitrile-water with 0.1 formic acid. Samples were analyzed by LC (Agilent 1100) with high-resolution MS (Waters quadrupole time of flight [Q-TOF] Premier mass spectrometer with electrospray interface) with concurrent low- and high-energy scans to obtain full-scan parent and product fragment ions. The analytical column was a Phenomenex Kinetex (2.6-μm C18, 100 by 3.0 mm). Waters MassLynx 4.1 software was used for data analysis.

[10] = Plasma protein binding, ultracentrifugation; format: in vitro ADME; conditions: human, ∼500,000 × g 2.5 h at 37°C, LC-MS/MS, SEM, read-out: % of protein bound (SEM) (converted)
Description: Ultracentrifugation ([15]) was used to compare human plasma protein binding of CD101 and anidulafungin. […] Following ultracentrifugation, the supernatant was transferred to a microtiter plate containing 50 μl plasma for matrix-matching purposes and quenched with 400 μl of cold acetonitrile (ACN) with 0.1% formic acid containing diclofenac as an internal standard. Quenched samples were centrifuged for 5 min at 10°C (e.g., 3,100 rpm [2,000 × g]) to sediment the precipitated proteins, and 50 μl supernatant was transferred to a microtiter plate containing 100 μl of water prior to analysis by LC-MS/MS. The percentage bound was the difference between 100% and the percentage free (the ratio of the concentration in supernatant to the total concentration).

[11] = 4-week repeat-dose, ref Ong et al., submitted, cited from earlier work
Source text: The studies described herein are part of a comprehensive series of safety, pharmacology, and toxicology studies of up to 4 weeks' duration as well as genetic toxicology studies, as required for an investigational new drug application. The results provide important insights for further research and development of CD101 and are best considered in this broader, developing context.

[12] = CD101 2, 6, 20 mg/kg/day i.v. 14 days, rats

## CCCCCOc1ccc(-c2ccc(-c3ccc(C(=O)N[C@H]4C[C@@H](O)[C@@H](OCC[N+](C)(C)C)NC(=O)[C@@H]5[C@@H](O)[C@@H](C)CN5C(=O)[C@H]([C@@H](C)O)NC(=O)[C@H]([C@H](O)[C@@H](O)c5ccc(O)cc5)NC(=O)[C@@H]5C[C@@H](O)CN5C(=O)[C@H]([C@@H](C)O)NC4=O)cc3)cc2)cc1 [CD101] ({pTerphenylCO(4''-OnC5H11)}-[Orn(4R-OH,5R-OCH2CH2NMe3+)]T[Hyp][hTyr(3S-OH,4S-OH)]T[Pro(3S-OH,4S-Me)]; lactam 1-C)
[1]
  % remaining in human plasma: 93%
[2]
  fraction unbound: 0.013
[3]
  fraction unbound: 0.011
[4]
  MEC: 0.004 µg/mL
[5]
  fraction unbound: 0.022
[6]; 14-day i.v. infusion, rats, CD101 20 mg/kg/day, anidulafungin 40 mg/kg/day (comparable exposure)
  repeat-dose systemic or target organ toxicity: did not appear to elicit any evidence of repeat-dose systemic or target organ toxicity
[6]; [12]
  early deaths: no early deaths
  effects on body weight, hematology, coagulation, or urinalysis: did not exhibit effects on body weight, hematology, coagulation, or urinalysis
[6]; CD101 2, 6, 20 mg/kg/day i.v. 14 days, rats, P ≤ 0.01, within normal limits, considered incidental
  increases in neutrophils: up to 31%
[6]; CD101 2, 6, 20 mg/kg/day i.v. 14 days, rats, P ≤ 0.05, within normal limits, considered incidental
  increases in reticulocytes, hemoglobin, hematocrit, activated partial thromboplastin time, BUN, sodium, total bilirubin, total protein, chloride, and globulin: less than 20%
[6]; day 15, H&E, CD101 2, 6, or 20 mg/kg/day, anidulafungin 40 mg/kg/day (some of the females)
  microscopic changes in the liver: no microscopic changes
[7]; 0.2 mg/kg i.v. BID for 5 days
  survival: 80%
[7]; 1 mg/kg i.v. BID for 5 days
  survival: 90%
[7]; 5 mg/kg i.v. BID for 5 days
  survival: 100%
[7]; BID for 5 days, CD101 all dose groups and anidulafungin 1 and 5 mg/kg i.v. (P < 0.05), amphotericin B 0.3 mg/kg i.p.
  10-day survival rate compared to the vehicle group: significant increase
[8]
  fraction unbound: 0.009
[9]; PBS pH 7.4, 37°C, 24 h of incubation (Fig. 3 legend), LC-HRMS
  degradation on incubation with and without GSH: No degradation observed
[9]; PBS pH 7.4, excess GSH, 37°C, LC with high-resolution MS
  GSH adduct formation (reactive intermediate): not found to generate any GSH adduct
[10]; 1 μg/ml
  fraction unbound: 0.02
[10]; 5 μg/ml
  fraction unbound: 0.017
[11]; cynomolgus monkeys
  no observed adverse effect level relative to the efficacious plasma exposure level: 47 times
[11]; rats
  no observed adverse effect level relative to the efficacious plasma exposure level: 34 times
